# Reference: the METLIN SMRT retention time set (Domingo-Almenara et al. 2019)
# Experiment: gradient 5% acetonitrile 3 min, to 50% in 2 min, to 85% in 15 min, held 3 min, 100 µL/min
# Conditions: column: Zorbax Extend-C18 2.1 x 50 mm; eluents: water / acetonitrile, 0.1% formic acid
# In short: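 Values are retention times taken from adduct peaks that software picked and an analyst inspected. The pure standards were run as mixtures of ~100 molecules on HPLC linked to a quadrupole time-of-flight mass spectrometer, in positive and negative ionization mode. A Zorbax Extend-C18 column (2.1 × 50 mm, 1.8 μm) was used at 100 μL/min with water and acetonitrile, each including 0.1% formic acid.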
row,SMILES,RP-LC retention time [s]
1,CCC(C(=O)Nc1ccc2c(c1)OCO2)n1cnc2nc3c(cc2c1=O)CCCC3 (stereo not drawn),773
2,COc1ccc(-c2cn3c(CC(=O)Nc4cc(C)on4)csc3n2)cc1OC,664
3,Cc1nc2cc(-c3noc(-c4nn(C)c5ccccc45)n3)ccc2o1,1040
4,CCN1C(SCC(=O)N(C)c2ccccc2)=NS(=O)(=O)c2ccccc21,1000
5,Cc1c(-c2nnc(C(=O)NCCCN3CCOCC3)o2)oc2c(C)cccc12,696
6,Cc1ccc2c(=O)c3c([nH]c2c1C)CCN(CC(=O)Nc1ccc(Cl)c(F)c1)C3,662
7,CC(C)c1ccc(C(=O)Nc2ccc3c(c2)Sc2ncccc2C(=O)N3C)cc1,950
8,Cc1ccnc(N2CCCC(C(=O)Nc3cc(Cl)ccc3C)C2)n1 (stereo not drawn),846
9,Cc1ccc(S(=O)(=O)N(C)CC2CCOC2)cc1F (stereo not drawn),849
10,c1ccc(-c2csc(Nc3ncccn3)n2)nc1,594
11,O=C1CCCc2cc(S(=O)(=O)N3CCC(C(=O)NC4CCCCCC4)CC3)ccc2N1,769
12,CCN(CC)c1nc2ccsc2c(=O)n1CCC(=O)NCc1ccc(F)cc1F,848
13,CCc1nc2cccnc2n1CCN1CCN(C(=O)Nc2ccc(C)cc2Cl)CC1,616
14,CC(C)NC(=O)c1ccc(OCC2CCN(C(=O)Cc3cccc(F)c3)CC2)cc1,845
15,CC(C)N1CCN(C(=O)c2cnc(-c3ccccc3)nc2-c2ccncc2)CC1,626
16,O=C(NC1CCCCC1)c1ccc(-c2csc(C3CC3)n2)cc1,1050
17,Cc1ncc2c(n1)CCCN(CC(=O)NCC1CC1)C2=O,582
18,COc1cc(NC(=O)NCC2(O)CCCC2)cc(OC)c1,660
19,COc1cccc(-n2cc(C(=O)O)c3c2C(c2ccc(OC)c(OC)c2)CC(=O)N3)c1 (stereo not drawn),717

row,SMILES,RP-LC retention time [s]
1,CNC(=O)C1CCN(Cc2cc3ccccc3n2Cc2ccc(C)cc2)CC1,693
2,O=S(=O)(c1ccc(Cl)cc1)N1CCc2nc(-c3ccc(F)cc3)ncc2C1,1150
3,COc1ccc(NC(=O)Cn2nc3cc(C)nc(Nc4ccc(F)c(C)c4)n3c2=O)cc1,1070
4,Cc1ccc(NC(=O)N2CCC(c3nc(C(=O)N4CCCC4)c(C)o3)CC2)cc1F,835
5,O=S(=O)(Oc1ccc(Cl)cc1)c1cccc2cccnc12,1050
6,COc1ccc(-c2nnc(COc3ccc(NC(=O)c4cnccn4)cc3)o2)cc1,800
7,COc1cccc2c1OC1(C)CC2C(S(=O)(=O)c2ccc(Cl)cc2)C(=O)N1 (stereo not drawn),877
8,O=C1NC2(CCN(C(=O)NCc3ccc(F)cc3)CC2)Nc2cc(Cl)ccc21,740
9,COc1ccc(N2CCN(c3cc(SCC(=O)NC(C)CCc4ccccc4)ncn3)CC2)cc1 (stereo not drawn),1310
10,O=C(CN1C(=O)NC2(CCCCC2)C1=O)NCCc1ccc(Cl)cc1,790
11,O=C(NCc1noc(C2CCCC2)n1)c1coc(C2CC2)n1,821
12,Cc1cc(C(=O)NCc2ccco2)c2c(=O)n(C)c(=O)n(C)c2n1,663
13,COc1cccc(-c2noc(Cc3nnc(-c4ccccc4)o3)n2)c1OC,894
14,CN(CCNC(=O)C1=Cc2ccccc2OC1)C1CCCCC1,675
15,Cc1ccc(NC(=O)NCC2(N3CCOCC3)CCOC2)cc1C (stereo not drawn),615
16,Fc1ccc(-c2n[nH]c(C3CCN(C4CCCC4)CC3)n2)cc1,611
17,Cc1cc(C(=O)N2CCCn3ccnc3C2C2CCCC2)n[nH]1 (stereo not drawn),584
18,O=C(NC1CC1)c1cccn1Cc1noc(-c2ccccc2)n1,840
19,NC(=O)c1cc(N2CCOCC2)nc2c(Cl)cccc12,720
